According to US20140187784A1, “RADIOACTIVE QUINOLINONE DERIVATIVE AND PHARMACEUTICAL DRUG COMPRISING THE SAME” (Nihon Medi-Physics Co., Ltd., priority 2012, published 2014):
Like-named read-outs stand apart in the source and are kept apart here.

How the values were obtained:
CYP11B2 [1] = biological target: T1, CYP11B2 (Homo sapiens, UniProt P19099); settings: reported by Stefanie Hahner et al., J Clin Endocrinol Metab 2008; cited from earlier work
T1 sequence (P19099 25-503): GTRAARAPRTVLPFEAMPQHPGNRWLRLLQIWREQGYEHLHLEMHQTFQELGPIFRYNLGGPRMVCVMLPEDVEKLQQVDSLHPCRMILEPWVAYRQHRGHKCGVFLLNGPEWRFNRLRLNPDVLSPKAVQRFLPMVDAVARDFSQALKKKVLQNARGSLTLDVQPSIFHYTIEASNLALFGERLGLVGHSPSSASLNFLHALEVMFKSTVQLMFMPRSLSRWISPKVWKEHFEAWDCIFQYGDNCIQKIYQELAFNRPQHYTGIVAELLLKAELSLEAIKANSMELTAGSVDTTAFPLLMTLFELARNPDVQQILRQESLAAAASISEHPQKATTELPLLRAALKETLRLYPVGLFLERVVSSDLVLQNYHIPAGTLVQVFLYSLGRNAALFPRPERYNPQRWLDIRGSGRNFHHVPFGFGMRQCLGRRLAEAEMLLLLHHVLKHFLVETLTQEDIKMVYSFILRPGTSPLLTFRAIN

human CYP11B1 = biological target: T2, human CYP11B1 (Homo sapiens, UniProt P15538); assay: Inhibition of cortisol production in V79-B1 cells expressing human CYP11B1 (ELISA); type: cell-based; settings: 11-deoxycortisol 100 nmol/L, 1 hour, unlabeled form, read-out: IC50 against cortisol production
T2 construct: expressed in transfected cells; host or cells: Chinese hamster lung-derived fibroblast V79 cells (V79-B1)
T2 sequence (P15538 25-503): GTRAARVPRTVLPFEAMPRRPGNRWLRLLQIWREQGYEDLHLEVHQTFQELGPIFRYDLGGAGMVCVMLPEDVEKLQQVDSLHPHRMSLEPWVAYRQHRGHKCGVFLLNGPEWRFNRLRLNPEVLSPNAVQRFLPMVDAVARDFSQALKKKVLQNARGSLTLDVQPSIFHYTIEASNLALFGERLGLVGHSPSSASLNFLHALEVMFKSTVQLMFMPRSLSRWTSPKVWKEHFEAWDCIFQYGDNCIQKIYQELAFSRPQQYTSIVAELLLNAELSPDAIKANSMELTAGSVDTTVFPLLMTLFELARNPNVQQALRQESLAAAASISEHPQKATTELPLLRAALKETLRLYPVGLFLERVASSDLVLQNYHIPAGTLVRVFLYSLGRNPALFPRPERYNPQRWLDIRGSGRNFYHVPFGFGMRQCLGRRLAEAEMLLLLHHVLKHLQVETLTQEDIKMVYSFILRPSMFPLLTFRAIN
Method: (§1) Chinese hamster lung-derived fibroblast V79 cells (obtained from European Collection of Cell Cultures (ECACC) via DS Pharma Biomedical Co., Ltd.) were allowed to express human CYP11B2 and human CYP11B1 to prepare V79-B2 and V79-B1, respectively. V79-B2 or V79-B1 was inoculated to a microplate and cultured overnight. Then, corticosterone and 11-deoxycortisol were added at final concentrations of 100 nmol/L into the culture supernatants of V79-B2 and V79-B1, respectively. At the same time, iodometomidate (IMTO) or the unlabeled form of PAY15, PAY21, PAY27, or PAY54 synthesized in Example 2, 5, 8, or 12 was added at a final concentration of 10^−4 to 10^3 nmol/L into the culture supernatants. One hour later, the culture supernatant of V79-B1 was recovered, and the concentration of cortisol, which is a metabolite of CYP11B1, was measured by enzyme-linked immunosorbent assay (ELISA). Four hours later, the culture supernatant of V79-B2 was recovered, and the concentration of aldosterone, which is a metabolite of CYP11B2, was measured by ELISA. […] IC50 against cortisol production/IC50 against aldosterone production was calculated and used as a selectivity factor for CYP11B2.

CYP11B2 [2] = biological target: T1, CYP11B2; assay: Inhibition of aldosterone production in V79-B2 cells expressing human CYP11B2 (ELISA); type: cell-based; set-up: expressed in transfected cells; host or cells: Chinese hamster lung-derived fibroblast V79 cells (V79-B2); settings: for Selectivity factor: IC50 against cortisol production/IC50 against aldosterone production, selectivity factor for CYP11B2; for IC50: V79-B2 cells, corticosterone 100 nmol/L, 4 hours, unlabeled form, read-out: IC50 against aldosterone production; for selectivity factor compared with IMTO: selectivity factor for CYP11B2, Table 6
Method: as §1

Compound | Selectivity factor (CYP11B2 [1]) | IC50 (human CYP11B1) [µM] | Selectivity factor (CYP11B2 [2]) | IC50 (CYP11B2 [2]) [µM] | selectivity factor compared with IMTO (CYP11B2 [2])
C[C@H](c1ccccc1)n1cncc1C(=O)OCCF [FETO, fluoroetomidate] | 0.145 | – | – | – | –
O=C1CCc2cc(-c3cncc(I)c3)cc3c2N1CCC3 [PAY15, 9-(5-iodopyridin-3-yl)-1,2,6,7-tetrahydro-5H-pyrido[3,2,1-ij]quinolin-3-one] | – | 0.141 | 223.95 | 0.00063 | higher than that of IMTO
O=C1CCc2cc(-c3cncc(I)c3)cc3c2N1CC3 [PAY21, 8-(5-iodopyridin-3-yl)-1,2,5,6-tetrahydro-4H-pyrrolo[3,2,1-ij]quinolin-4-one] | – | 0.0211 | 26.09 | 0.00081 | higher than that of IMTO
